Laboratory results published in PMC8453936, “Development and in vitro Profiling of Dual FXR/LTA4H Modulators” (Chemmedchem, 2021).
“And” between values parts separate entries of the source, which are not always exact repeats. Equal values may be shown once. Read-outs that look alike come from different tables or passages of the source.

Assays:
[1] = molecular target: T1, full-length human FXR (Homo sapiens, UniProt Q96RI1); conditions: mean±S.E.M., n≥3, previously reported, cited from earlier work; for EC50(FXR) / EC50: full-length FXR reporter gene assay, BSEP promoter, HeLa; for FXR efficacy (maximum FXR activation relative to 3 μM GW4064): 3 μM GW4064 = 100 % activation
T1 construct: coding for the full‐length human nuclear receptors FXR and RXRα; expressed in transfected cells; host or cells: HeLa
T1 sequence (Q96RI1 1-486): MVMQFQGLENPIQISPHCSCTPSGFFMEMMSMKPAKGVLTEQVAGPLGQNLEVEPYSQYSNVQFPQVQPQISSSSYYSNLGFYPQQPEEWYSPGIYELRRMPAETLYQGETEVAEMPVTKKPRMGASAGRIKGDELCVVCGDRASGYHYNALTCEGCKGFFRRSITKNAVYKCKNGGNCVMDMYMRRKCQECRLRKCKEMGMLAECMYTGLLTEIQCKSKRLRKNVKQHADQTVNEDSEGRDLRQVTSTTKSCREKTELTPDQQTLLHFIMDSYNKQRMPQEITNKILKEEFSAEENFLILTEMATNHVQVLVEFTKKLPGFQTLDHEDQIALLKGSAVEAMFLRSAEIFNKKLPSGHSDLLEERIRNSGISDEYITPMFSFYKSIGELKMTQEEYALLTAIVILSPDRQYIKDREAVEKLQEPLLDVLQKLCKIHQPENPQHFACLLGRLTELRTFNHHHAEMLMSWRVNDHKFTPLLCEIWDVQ
T1 sequence (P19793 1-462 partner): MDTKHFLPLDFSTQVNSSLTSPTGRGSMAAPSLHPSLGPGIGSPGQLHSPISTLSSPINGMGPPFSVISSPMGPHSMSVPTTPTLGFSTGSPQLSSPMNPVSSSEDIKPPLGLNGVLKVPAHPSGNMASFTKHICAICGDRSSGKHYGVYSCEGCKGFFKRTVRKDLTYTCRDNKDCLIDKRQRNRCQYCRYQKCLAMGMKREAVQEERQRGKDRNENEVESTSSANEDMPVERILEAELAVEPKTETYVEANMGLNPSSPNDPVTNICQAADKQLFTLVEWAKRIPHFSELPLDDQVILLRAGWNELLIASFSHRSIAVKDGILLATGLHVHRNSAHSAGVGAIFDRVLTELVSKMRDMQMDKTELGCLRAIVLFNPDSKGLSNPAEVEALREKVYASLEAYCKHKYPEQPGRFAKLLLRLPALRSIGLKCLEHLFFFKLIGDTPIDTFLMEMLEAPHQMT

[2] = molecular target: T2, recombinant human LTA4H (Homo sapiens, UniProt P09960); conditions: for LTA4H max. inhib.: LTA4H inhibition at the highest tested concentration (up to 100 μM), mean±S.E.M., n=3
T2 sequence (P09960 1-611): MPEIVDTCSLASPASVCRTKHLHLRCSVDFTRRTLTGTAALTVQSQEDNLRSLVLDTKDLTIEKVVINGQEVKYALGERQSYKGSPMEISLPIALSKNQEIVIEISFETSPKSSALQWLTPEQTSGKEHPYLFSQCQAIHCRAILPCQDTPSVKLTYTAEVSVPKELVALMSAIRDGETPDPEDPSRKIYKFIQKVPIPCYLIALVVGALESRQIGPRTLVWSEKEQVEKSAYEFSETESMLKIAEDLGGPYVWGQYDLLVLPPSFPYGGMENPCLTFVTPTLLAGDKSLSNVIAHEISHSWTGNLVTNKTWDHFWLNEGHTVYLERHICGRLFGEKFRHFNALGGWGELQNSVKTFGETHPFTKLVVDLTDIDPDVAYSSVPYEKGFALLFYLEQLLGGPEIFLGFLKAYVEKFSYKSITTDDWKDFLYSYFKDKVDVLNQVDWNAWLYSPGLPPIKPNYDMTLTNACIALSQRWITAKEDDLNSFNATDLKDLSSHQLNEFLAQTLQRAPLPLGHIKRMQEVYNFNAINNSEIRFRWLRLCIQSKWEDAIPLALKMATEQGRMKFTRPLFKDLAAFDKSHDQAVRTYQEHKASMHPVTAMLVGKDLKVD
Description: FXR modulation by 3–20 was characterized in a cellular (HeLa, transiently transfected) full‐length FXR reporter gene assay employing the human FXR response element from the promoter region of bile salt export protein (BSEP) to govern firefly luciferase expression as reporter gene.[26, 27] FXR and its natural heterodimer partner retinoid X receptor (RXR) were constitutively over‐expressed and a constitutively expressed renilla luciferase was present as internal control for transfection efficiency and cellular health.
LTA4H assay. […] The assay was performed in black polystyrol 96‐well plates in a final volume of 100 μL. Test compound solution in DMSO (1 μL) or DMSO alone as control were incubated with 89 μl protein mixture (containing LTA4H, buffer and Triton‐X‐100). After 30 min, 10 μl of substrate mixture (containing L‐arginin‐7‐amido‐4‐methylcumarine and DMSO in buffer) were added. […] A blank measurement containing no protein was performed and treated as 0 % conversion control. All samples were measured in triplicates and each experiment was conducted in three independent repeats.

[3] = molecular target: T1, full-length human FXR; assay: Full-length FXR:RXR reporter gene assay (BSEP promoter, HeLa, transiently transfected); format: cell-based; conditions: mean±S.E.M., n≥3; for EC50: full-length FXR reporter gene assay, BSEP promoter, HeLa; for FXR efficacy (maximum FXR activation relative to 3 μM GW4064): 3 μM GW4064 = 100 % activation
Method: Full‐length FXR:RXR reporter gene assay. HeLa cells were grown in DMEM high glucose supplemented with 10 % FCS, sodium pyruvate (1 mM), penicillin (100 U/mL) and streptomycin (100 μg/mL) at 37 °C and 5 % CO2 and seeded in 96‐well plates 24 h before transfection with a density of 8000 cells per well. 3.5 h before transfection, medium was changed to DMEM high glucose, supplemented with sodium pyruvate (1 mM), penicillin (100 U/mL), streptomycin (100 μg/mL) and 0.5 % charcoal‐stripped FCS. Cells were then transiently transfected with using the calcium phosphate transfection method with pGL3basic‐BSEP[26, 27] (containing a shortened construct of the promotor of the bile salt export protein (BSEP) cloned into the SacI/NheI cleavage site in front of the luciferase gene), pcDNA3‐hFXR[26] and pSG5‐hRXR[38] coding for the full‐length human nuclear receptors FXR and RXRα, and pRL‐SV40 (Promega) for normalization of transfection efficiency and cell growth. 16 h after transfection, medium was changed to DMEM high glucose, supplemented with sodium pyruvate (1 mM), penicillin (100 U/mL), streptomycin (100 μg/mL) and 0.5 % charcoal‐stripped FCS. 24 h after transfection, medium was changed to DMEM without phenol red, supplemented with sodium pyruvate (1 mM), penicillin (100 U/mL), streptomycin (100 μg/mL), L‐glutamine (2 mM) and 0.5 % charcoal‐stripped FCS, now additionally containing 0.1 % DMSO and the respective test compound or 0.1 % DMSO alone as untreated control. Each sample was tested in triplicate wells and each experiment was repeated independently at least three times. Following 24 h incubation with the test compounds, cells were assayed for luciferase activity using Dual‐Glo Luciferase Assay System (Promega) according to the manufacturer's protocol. Luminescence was measured with a Tecan Spark M luminometer (Tecan). Normalization of transfection efficiency and cell growth was done by division of firefly luciferase data by Renilla luciferase data multiplied by 1000 resulting in relative light units (RLU). Fold activation was obtained by dividing the mean RLU of the tested compound at a respective concentration by the mean RLU of untreated control. EC50 and standard error of the mean values were calculated with the mean fold activation values of at least three independent experiments with SigmaPlot 10.0 (Systat Software GmbH, Erkrath, Germany) using a four‐parameter logistic regression.

SMILES	IC50 [2] [nM]	LTA4H max. inhib. [2] [%]	EC50(FXR) [1]	EC50 [3] [nM]	FXR efficacy (maximum FXR activation relative to 3 μM GW4064) [3]	FXR efficacy (maximum FXR activation relative to 3 μM GW4064) [1]	EC50 [1] [nM]
O=C(Nc1cccc2c(=O)cc(-c3nnn[nH]3)oc12)c1ccc(OCCCCc2ccccc2)cc1 [compound 4, pranlukast, reference compound]	1600 ± 200	82.6±0.8					
CS(=O)(=O)Nc1cccc(NC(=O)c2ccc(OCCCc3ccccc3)cc2)c1 [compound 18]	130 ± 10	89.5±0.5		1600 ± 400	35±2%		
O=C(O)c1ccc(NC(=O)c2ccc(OCCCCc3ccccc3)cc2)cc1 [compound 7]	370 ± 20	97.8±0.1				29±1%	14 ± 1
O=C(Nc1nc(C(=O)O)co1)c1ccc(OCCCc2ccccc2)cc1 [compound 20]		99.7±0.1		11000 ± 2000	30±1%		
O=C(O)c1cccc(NC(=O)c2ccc(Oc3ccccc3)cc2)c1 [compound 11]	550 ± 60	98.2±0.1				35±1%	1 ± 0.3
O=C(O)c1cccc(NC(=O)c2ccc(OCc3ccccc3)cc2)c1 [compound 10]	1100 ± 100	94.9±0.2				20±1%	
O=C(O)c1cccc(NC(=O)c2ccc(OCCCCc3ccccc3)cc2)c1 [compound 3]	540 ± 70	97.2±0.4				34% and 34±1%	
O=C(O)c1ccc(NC(=O)c2ccc(OCCCc3ccccc3)cc2)cc1 [compound 16]	200 ± 20	98.8±0.1					
COc1c(NC(=O)c2ccc(OCCCCc3ccccc3)cc2)cccc1C(=O)O [compound 6]	5500 ± 500	85±2				26±1%	190 ± 20
O=C(Nc1ccnc(C(=O)O)c1)c1ccc(Oc2ccccc2)cc1 [compound 14]	950 ± 10	97.9±0.1					

Further compounds by falling IC50 [2], results first:

IC50 [2] [nM]	LTA4H max. inhib. [2] [%]	SMILES	EC50(FXR) [1]	EC50 [3] [nM]	FXR efficacy (maximum FXR activation relative to 3 μM GW4064) [3]	FXR efficacy (maximum FXR activation relative to 3 μM GW4064) [1]	EC50 [1] [nM]
15000 ± 2000	80±5	O=C(Nc1cccc2c(=O)cc(C(=O)O)oc12)c1ccc(OCCCCc2ccccc2)cc1 [compound 5]	inactive (50 μM)				
5200 ± 600	81.1±0.6	O=C(O)c1cccc(NC(=O)c2ccc(Oc3cccc(-c4ccccc4)c3)cc2)c1 [compound 12]		300 ± 100	14% and 14±1%		
2100 ± 100	89.6±0.6	O=C(O)c1ccnc(NC(=O)c2ccc(Oc3ccccc3)cc2)c1 [compound 15]				56±1%	70 ± 20
1900 ± 100	97.0±0.2	O=C(O)Cc1cccc(NC(=O)c2ccc(OCCCc3ccccc3)cc2)c1 [compound 17]		> 30000			
610 ± 60	96.0±0.2	O=C(O)c1cccc(NC(=O)c2ccc(OCCc3ccccc3)cc2)c1 [compound 9]				56±1%	150 ± 20
280 ± 20	90.8±0.3	O=C(Nc1cccc(C(=O)O)n1)c1ccc(Oc2ccccc2)cc1 [compound 13]	antagonist				
